17 molecules from BindingDB's records for doi:10.1021/acschembio.5b00452 (Oregon Health & Science University, 2015) can be followed below.

pIC50: −log10 of the molar value.

For one experiment, the target named is T1, N-glycosylase/DNA lyase (Homo sapiens, UniProt O15527). Put plainly: Gel-based Cleavage Assay.
T1 sequence (O15527 whole entry): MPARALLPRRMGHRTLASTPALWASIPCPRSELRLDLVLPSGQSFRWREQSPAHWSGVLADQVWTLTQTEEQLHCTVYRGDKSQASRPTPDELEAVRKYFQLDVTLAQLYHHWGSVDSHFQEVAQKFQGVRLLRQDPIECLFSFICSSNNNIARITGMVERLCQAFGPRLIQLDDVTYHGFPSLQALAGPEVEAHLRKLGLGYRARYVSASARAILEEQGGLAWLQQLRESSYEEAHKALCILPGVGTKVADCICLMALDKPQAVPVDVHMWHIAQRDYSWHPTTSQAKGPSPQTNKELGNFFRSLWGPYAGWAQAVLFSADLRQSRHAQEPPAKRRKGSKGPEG
Details: not given
How it is done:
Substrate (5 µL, 50 nM) was added to bring the final volume to 10 µL. The reaction was incubated 30 min at 37 °C, quenched by the addition of 10 µL of formamide, and put on ice. […] Band intensities were quantified using the Image Studio Lite Software (LI-COR).
In the case of `O=C(NN=C1CCCCC1)c1cc2ccccc2cc1O` [N'‐Cyclohexylidene‐3‐hydroxynaphthalene‐2‐carbohydrazide (0158)], the pIC50 was 6.47.

For `NNC(=O)c1ccncc1` [4-pyridinecarbohydrazide(Isoniazid)], the negative-log IC50 (pIC50) was under 4.30.

The molecule `NNC(=O)c1sc2cccc(Cl)c2c1Cl` [3,4‐Dichloro‐1‐benzothiophene‐2‐carbohydrazide (08)] had a pIC50 of 6.66.

For another experiment, the target named is T1, N-glycosylase/DNA lyase. The experiment is described as follows: Fluorescence-based Assay. The note with it: pH 7.5; 37 °C. How it is done:
The fluorescence-based assay outlined in Figure 2 a was performed in black, low volume 384-well plates with a fi nal volume of 10 µL per well. Nine uL of assay buffer (20 mM Tris-HCl, 100 mM KCl, 0.1% BSA, 0.01% Tween-20, pH 7.5) was added toeach well, followed by the addition of 1 uL of DMSO (control) or 50 µM compound in DMSO. […] Control wells containing just substrate or just substrate + enzyme were used to calculate Z values for each plate.
As for `CCCC/C(C)=N\NC(=O)c1cccc(Br)c1` [3‐Bromo‐N'‐[(2Z)‐hexan‐2‐ylidene]benzohydrazide (0156)], the negative logarithm of the IC50 (pIC50) was 5.67.

Molecule `NNc1nncc2ccccc12` [NSC_3637] had a pIC50 of under 4.30.

`CCCN1CCC(=NNC(=O)c2ccc(Cl)cc2Cl)CC1` [2,4‐Dichloro‐N'‐(1‐propylpiperidin‐4‐ ylidene)benzohydrazide (0181)]: the negative logarithm of the IC50 (pIC50) is 5.34.

The molecule `CC(Oc1cccc(Cl)c1)C(=O)NN` (stereo not given) [2‐(3‐Chlorophenoxy)propanehydrazide (01)] showed a pIC50 of 5.47.

Molecule `O=C(NN=C1CCCCC1)c1cc2ccccc2cc1O` [N'‐Cyclohexylidene‐3‐hydroxynaphthalene‐2‐carbohydrazide (0158)] had a pIC50 of 6.54. Compared with the last molecule, the pIC50 is 1.07 log units higher.

On to `NC(=O)c1ccc(Br)cc1` [4-Bromo-benzamide], for which the pIC50 is under 4.30.

`NNC(=O)c1ccncc1` [4-pyridinecarbohydrazide(Isoniazid)] had a negative-log IC50 (pIC50) of under 4.30.

As for `NNC(=O)c1ccc(Br)cc1` [Benzoylhydrazine, P‐bromo (0151-Hy)], the pIC50 is 6.41.

`NNC(=O)c1sc2ccccc2c1Cl` [3‐Chloro‐1‐benzothiophene‐2‐carbohydrazide (O8-Cl)]: the pIC50 is 6.52. The pIC50 values of the last two molecules are within 0.2 log units of each other.

`COc1cc(C)c(S(=O)(=O)n2cc(C)nc2-c2ccccc2)cc1C` [1‐(4‐Methoxy‐2,5‐dimethylbenzenesulfonyl)‐4‐methyl‐2‐phenylimidazole (0105)] had a negative logarithm of the IC50 (pIC50) of 5.38. Against the preceding molecule, the pIC50 is 1.14 log units lower.

Consider `C/C(=N\NC(=O)c1cc2ccccc2cc1O)c1ccc2c(c1)OCO2` [N'‐[(1E)‐1‐(2H‐1,3‐benzodioxol‐5‐yl)ethylidene]‐3‐hydroxynaphthalene‐2‐carbohydrazide (0179)], for which the pIC50 is 5.14.

As to `C=CCC/C(C)=N\NC(=O)c1cccc(Br)c1` [3‐Bromo‐N'‐[(2Z)‐hex‐5‐en‐2‐ylidene]benzohydrazide (0155)], the negative logarithm of the IC50 (pIC50) was 5.42.

`Cc1cc(OCC(=O)NN)cc(C)c1Cl` [2‐(4‐Chloro‐3,5‐dimethylphenoxy)acetohydrazide (0159)] showed a pIC50 of 5.82.

As for `NNC(=O)c1sc2cccc(Cl)c2c1Cl` [3,4‐Dichloro‐1‐benzothiophene‐2‐carbohydrazide (08)], the pIC50 is 6.46.

Consider `NNC(=O)COc1cccc2ccccc12` [2‐(Naphthalen‐1‐yloxy)acetohydrazide (040)], for which the pIC50 was 5.81.

Molecule `O=C(CCNNC(=O)c1ccncc1)NCc1ccccc1` [Nialamide] gave a pIC50 of under 4.30.

`Cc1cc(C(=O)NNCc2ccccc2)no1` [ISOCARBOXAZID] gave a pIC50 of under 4.30.

For orientation: pIC50 means −log10 of the IC50, conventionally taken in molar units.
